Like-named read-outs stand apart in the source and are kept apart here.
Columns and labels:
[1] = Pharmacokinetics in mice after single oral dosing (blood/plasma and liver exposure); assay type: in vivo; conditions: for blood/plasma exposure / liver exposure / liver/blood ratio / blood/plasma exposure (below LLOQ) / liver exposure (below LLOQ): 20 mg/kg single oral dose, time point 4 h; for blood/plasma exposure (below LLOQ) / liver exposure (below LLOQ): number is the LLOQ; for oral bioavailability: single oral dose
Protocol: The pharmacokinetics of the compounds was assessed in mice after single dosing and oral administrations. Blood/plasma and liver exposure was measured via LC-MS.
The study design was as follows: • Animals: C57/bl6/J (Janvier) males • Diet: standard rodent chow • Dose: 20 mg/kg • Animal handling: animals were withdrawn from food at least 12 h before administration • Design: single dose oral administration, n=3 animals per group • Sacrifice: at stated time point (4, 12 or 24 h) after administration • Bioanalytics: LC-MS of liver and blood/plasma samples

LXRβ [2] = molecular target: T1, LXRβ (Homo sapiens, UniProt P55055); test: LXR Gal4 reporter transient transfection assay (mammalian two-hybrid, HEK293), LXRβ; assay type: cell-based; conditions: ligand-binding domain (LBD) of LXRβ, HEK293; read-out: LBD-M2H Gal4β
T1 construct: LXRβ (amino acids 156-461); expressed in transfected cells; host or cells: HEK293
T1 sequence (P55055 156-460): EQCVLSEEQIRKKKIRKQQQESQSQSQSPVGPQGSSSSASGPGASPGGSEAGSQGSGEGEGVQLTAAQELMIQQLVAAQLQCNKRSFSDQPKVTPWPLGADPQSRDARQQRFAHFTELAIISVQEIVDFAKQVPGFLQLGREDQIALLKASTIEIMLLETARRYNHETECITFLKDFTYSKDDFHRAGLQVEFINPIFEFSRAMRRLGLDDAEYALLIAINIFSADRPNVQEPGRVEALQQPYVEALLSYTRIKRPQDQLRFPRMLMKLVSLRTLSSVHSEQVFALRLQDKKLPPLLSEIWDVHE
Protocol: (§1) LXRα and LXRβ activity status was determined via detection of interaction with coactivator and corepressor proteins in mammalian two-hybrid experiments (M2H). For this, via transient transfection the full length (FL) proteins of LXRα (amino acids 1-447; NP005684; SEQ ID NO:1) or LXRβ-(amino acids 1-461; NP009052; SEQ ID NO:2) or the ligand-binding domains (LBD) of LXRα (amino acids 155-447 SEQ ID NO:3) or LXRβ (amino acids 156-461; SEQ ID NO:4) were expressed from pCMV-AD (Stratagene) as fusions to the transcriptional activation domain of NFkB. As cofactors, domains of either the steroid receptor coactivator 1 (SRC1; amino acids 552-887; SEQ ID NO:5) or of the corepressor NCoR (amino acids 1906-2312; NP006302; SEQ ID NO:6) were expressed as fusions to the DNA binding domain of the yeast transcription factor GAL4 (from pCMV-BD; Stratagene). Interaction was monitored via activation of a coexpressed Firefly Luciferase Reporter gene under control of a promoter containing repetitive GAL4 response elements (vector pFRLuc; Stratagene). Transfection efficiency was controlled via cotransfection of constitutively active pRL-CMV Renilla reniformis luciferase reporter (Promega). HEK293 cells were grown in minimum essential medium (MEM) with 2 mM L-glutamine and Earle's balanced salt solution supplemented with 8.3% fetal bovine serum, 0.1 mM non-essential amino acids, 1 mM sodium pyruvate, at 37° C. in 5% CO2. 3.5×10^4 cells/well were plated in 96-well cell culture plates in growth medium supplemented with 8.3% fetal bovine serum for 16-20 h to ˜90% confluency. For transfection, medium was taken off and LXR and cofactor expressing plasmids as well as the reporter plasmids are added in 30 μL OPTIMEM/well including polyethylene-imine (PEI) as vehicle. Typical amounts of plasmids transfected/well: pCMV-AD-LXR (5 ng), pCMV-BD-cofactor (5 ng), pFR-Luc (100 ng), pRL-CMV (0.5 ng). Compound stocks were prepared in DMSO, prediluted in MEM to a total volume of 120 μL, and added 4 h after addition of the transfection mixture (final vehicle concentration not exceeding 0.2%). Cells were incubated for additional 16 h, lysed for 10 min in 1×Passive Lysis Buffer (Promega) and Firefly and Renilla luciferase activities were measured sequentially in the same cell extract using buffers containing D-luciferine and coelenterazine, respectively. Measurements of luminescence were done in a BMG-luminometer.
(§2) The potencies of Compound 21/3 and its analog, Compound pre-6/3, against LXRα and LXRβ were evaluated in biochemical binding assays, cellular mammalian two-hybrid (M2H) interaction assays evaluating nuclear receptor co-repressor (NCOR) recruitment, and cellular reporter assays evaluating transcriptional activity (Table 5).

LXRβ [3] = molecular target: T2, LXRβ (Homo sapiens, UniProt P55055); test: as above; assay type: cell-based; design: LXRβ (amino acids 156-461); expressed in transfected cells; host or cells: HEK293; conditions: full length (FL) LXRβ, HEK293; read-out: FL-M2H Gal4β
T2 sequence (P55055 1-460): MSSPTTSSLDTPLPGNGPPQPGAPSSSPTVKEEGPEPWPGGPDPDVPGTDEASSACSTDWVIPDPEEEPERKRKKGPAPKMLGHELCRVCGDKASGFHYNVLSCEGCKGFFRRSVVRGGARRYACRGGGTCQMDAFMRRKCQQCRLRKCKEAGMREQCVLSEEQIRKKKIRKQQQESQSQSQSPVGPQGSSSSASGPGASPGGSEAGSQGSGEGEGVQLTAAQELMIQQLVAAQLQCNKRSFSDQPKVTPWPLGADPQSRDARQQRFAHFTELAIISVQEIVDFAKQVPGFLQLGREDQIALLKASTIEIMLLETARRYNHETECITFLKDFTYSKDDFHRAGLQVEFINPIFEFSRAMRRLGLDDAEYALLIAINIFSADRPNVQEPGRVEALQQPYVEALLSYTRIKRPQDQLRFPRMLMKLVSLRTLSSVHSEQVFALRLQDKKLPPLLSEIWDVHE
Method in brief: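 Mammalian two-hybrid read-out of LXR–coactivator (SRC1) or corepressor (NCoR) interaction: firefly luciferase under GAL4 response elements, normalised via Renilla co-transfection. LXRα/β full-length or LBD fusions expressed transiently in HEK293; compounds (final DMSO ≤0.2%) given 4 h after transfection for 16 h before lysis.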

[4] = molecular target: T3, GST-LXRβ ligand-binding domain (Homo sapiens, UniProt P55055); test: TR-FRETβ activity assay (NCoA3 coactivator peptide recruitment); assay type: biochemical; conditions: 1 μM 24(S)-25-epoxycholesterol prestimulation
T3 construct: amino acids 156-461; NP009052; made in house; host or cells: E. coli
T3 sequence (P55055 156-460 limits assumed): T1 sequence (P55055 156-460)
Method in brief: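 Inverse-agonist format, with LXR prestimulated by 1 μM 24(S)-25-epoxycholesterol in pH 6.8 Tris/HCl, 240 mM KCl, BSA and Triton. Ten concentrations from 50 μM to 0.002 μM were equilibrated 1 h at 4° C with 76 nM GST-LXRβ LBD and 400 nM biotin-NCoA3 peptide. Peptide recruitment detected by 665/615 nm TR-FRET.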

LXRα = molecular target: T4, LXRα (Homo sapiens, UniProt Q13133); test: LXR Gal4 reporter transient transfection assay (mammalian two-hybrid, HEK293), LXRα; assay type: cell-based; design: expressed in transfected cells; host or cells: HEK293; conditions: full length (FL) LXRα, HEK293; read-out: FL-M2H Gal4α
T4 sequence (Q13133 1-447): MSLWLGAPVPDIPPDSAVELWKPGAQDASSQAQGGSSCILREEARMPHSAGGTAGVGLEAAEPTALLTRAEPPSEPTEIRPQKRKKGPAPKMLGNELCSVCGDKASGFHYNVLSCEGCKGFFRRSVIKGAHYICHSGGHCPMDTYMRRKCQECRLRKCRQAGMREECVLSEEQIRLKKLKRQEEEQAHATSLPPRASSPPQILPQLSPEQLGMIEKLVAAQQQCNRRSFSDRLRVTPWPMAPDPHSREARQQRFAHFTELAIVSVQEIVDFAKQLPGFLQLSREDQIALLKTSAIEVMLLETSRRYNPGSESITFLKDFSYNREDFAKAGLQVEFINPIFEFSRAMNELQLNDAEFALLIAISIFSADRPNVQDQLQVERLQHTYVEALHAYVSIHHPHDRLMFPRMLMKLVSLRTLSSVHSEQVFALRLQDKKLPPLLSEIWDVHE
Protocol: as §1, §2

Structure (SMILES) | EC50 (LXRβ [2]) | EC50 (LXRβ [3]) | EC50 [4] | EC50 (LXRα) | also measured
N#Cc1sccc1-c1c(-c2cccc(C3CC3C(=O)O)c2)n(S(=O)(=O)c2ccc(Cl)cc2)c2ccc(F)cc12 (stereo not drawn) [3/24] | < 0.1 µM | < 0.1 µM |  |  | blood/plasma exposure [1]: D (<100 nM); liver exposure [1]: C (1 μM to ≤3 μM); liver/blood ratio [1]: D (>30)
Cc1ccc(S(=O)(=O)n2c(-c3cccc(N4CC(C(=O)O)C4)c3)c(-c3ccsc3C#N)c3cc(F)c(F)cc32)cc1 [3/42] | < 0.1 µM | < 0.1 µM | 1 to 10 µM |  | 
Cc1ccc(S(=O)(=O)n2c(-c3cccc(N4CC(C(=O)O)C4)c3)c(-c3ccsc3C#N)c3cc(F)c(Cl)cc32)cc1 [3/43] | 0.1 to 1 µM | < 0.1 µM | 1 to 10 µM |  | 
Cc1ccc(S(=O)(=O)n2c(-c3cccc(N4CC(C(=O)O)C4)c3)c(-c3ccsc3C#N)c3cc(Cl)ccc32)cc1 [3/44] | < 0.1 µM | < 0.1 µM | 1 to 10 µM |  | 
Cc1ccc(S(=O)(=O)n2c(-c3cccc(N4CC(C(=O)O)C4)c3)c(-c3ccsc3C#N)c3cc(C)ccc32)cc1 [3/46] | < 0.1 µM | < 0.1 µM | 0.1 to 1 µM |  | 
Cc1ccc(S(=O)(=O)n2c(-c3cccc(-c4ccc(C(N)=O)cc4)c3)c(-c3ccsc3C#N)c3cc(F)ccc32)cc1 [6/2] |  | < 0.1 µM | 0.1 to 1 µM | < 0.1 µM | 
Cc1cccc(C#N)c1-c1c(-c2cccc(-c3ccc(C(=O)O)cc3Cl)c2)n(S(=O)(=O)c2ccc(C(F)F)cc2)c2ccc(F)cc12 [11/36] |  | < 0.1 µM | < 0.1 µM | < 0.1 µM | 
N#Cc1cccc(C#N)c1-c1c(-c2cccc(-c3ccc(C(=O)O)cc3)c2)n(S(=O)(=O)c2ccc(C(F)F)cc2)c2ccc(F)cc12 [11/50] |  | < 0.1 µM | < 0.1 µM | < 0.1 µM | 
N#Cc1sccc1-c1c(-c2cccc(N3CC(C(=O)O)C3)c2)n(S(=O)(=O)c2ccc(Cl)cc2)c2ccccc12 [30/7] | < 0.1 µM |  | 0.1 to 1 µM |  | blood/plasma exposure [1]: D (<100 nM); liver exposure [1]: B (300 nM to ≤1 μM); liver/blood ratio [1]: D (>30)
Cc1cccc(C#N)c1-c1c(-c2cccc(-c3ccc(C(=O)O)cc3Cl)c2)n(S(=O)(=O)c2ccc(C(F)F)cc2)c2ccc(F)cc12 [41/2, 2-chloro-3′-(3-(2-cyano-6-methylphenyl)-1-((4-(difluoro-methyl)phenyl)sulfonyl)-5-fluoro-1H-indol-2-yl)-[1,1′-biphenyl]-4-carboxylic acid] |  |  | < 0.1 µM | < 0.1 µM | 
N#Cc1cccc(-c2c(-c3cccc(-c4ccc(C(=O)O)cc4Cl)c3)n(S(=O)(=O)c3ccc(C(F)F)cc3)c3ccc(F)cc23)c1 [C11/48] |  | < 0.1 µM | < 0.1 µM | < 0.1 µM | 
Cc1ccc(S(=O)(=O)n2c(-c3cccc(-c4ccc(CN(C)C)cc4Cl)c3)c(-c3ccsc3C#N)c3cc(F)ccc32)cc1 [Compound 2] |  | < 0.1 µM | 0.1 to 1 µM | < 0.1 µM | 
Cc1ccc(S(=O)(=O)n2c(-c3cccc(-c4cncc(S(=O)(=O)CC(=O)O)c4)c3)c(-c3ccsc3C#N)c3ccccc32)cc1 [Compound 5] |  | 1 to 10 µM | 0.1 to 1 µM | 1 to 10 µM | 
Cc1ccc(S(=O)(=O)n2c(-c3cccc(-c4ccc(C(=O)NO)cc4)c3)c(-c3ccsc3C#N)c3cc(F)ccc32)cc1 [Compound 6] |  | < 0.1 µM | 0.1 to 1 µM | < 0.1 µM | 
Cc1ccc(S(=O)(=O)n2c(-c3cccc(-c4ccc(C(=O)NCCS(=O)(=O)O)cc4Cl)c3)c(-c3ccsc3C#N)c3cc(F)ccc32)cc1 [Compound 10] |  | 0.1 to 1 µM | 0.1 to 1 µM | < 0.1 µM | 
Cc1ccc(S(=O)(=O)n2c(-c3cccc(-c4ccc(C(=O)O)cc4Cl)c3)c(-c3ccccc3C#N)c3cc(F)ccc32)cc1 [Compound 11] |  | < 0.1 µM | < 0.1 µM | < 0.1 µM | 
Cc1ccc(S(=O)(=O)n2c(-c3cccc(-c4cc(C)c(C(=O)O)cc4Cl)c3)c(-c3ccsc3C#N)c3cc(F)ccc32)cc1 [Compound 12] |  | < 0.1 µM | 0.1 to 1 µM | < 0.1 µM | 
Cc1cc(C)c(S(=O)(=O)N(Cc2ccc(-c3cccc(S(C)(=O)=O)c3)cc2)Cc2ccc(C(F)(F)F)o2)c(C)c1 [GSK2033, reference compound] |  |  |  |  | blood/plasma exposure (below LLOQ) [1]: (14.4 ng/mL); liver exposure (below LLOQ) [1]: (9.6 ng/mL); oral bioavailability [1]: not orally bioavailable
CCOC(=O)c1ccc(CN(Cc2ccc(-c3cccc(S(C)(=O)=O)c3)cc2)S(=O)(=O)c2c(C)cc(C)cc2C)o1 [SR9238, reference compound] |  |  |  |  | blood/plasma exposure (below LLOQ) [1]: below LLOQ; liver exposure (below LLOQ) [1]: below LLOQ; oral bioavailability [1]: not orally bioavailable

Source: US20260083704A1, “LXR MODULATORS WITH BICYCLIC CORE MOIETY FOR TREATING DYSLIPIDEMIAS” (OrsoBio, Inc., priority 2022, published 2026)
